Results published in patent publication US8916711B2, “Imidazothiazole-chalcone derivatives as potential anticancer agents and process for the preparation thereof” (Council of Scientific and Industrial Research, priority 2009, dated 2014).
Where two headings read alike, the source gives them in different places.

Columns and labels:
Format in all cases: cell-based
NCI-H460 = assay: NCI in vitro cytotoxicity (SRB, 48 h), Non-small cell lung panel; conditions: Homo sapiens, 48 h exposure
[1] = test system: Prostate cancer cell lines; assay: NCI in vitro cytotoxicity, whole panel; conditions: Homo sapiens; for LC50: read-out: Log10 LC50 (converted)
Melanoma cell lines = assay: NCI in vitro cytotoxicity, whole panel; conditions: Homo sapiens; for CC50: read-out: Log10 LC50 (converted)
SK-MEL-2 = assay: NCI in vitro cytotoxicity (SRB, 48 h), Melanoma panel; conditions: Homo sapiens; SK-MEL-2, Melanoma; 48 h exposure
SW-620 = assay: NCI in vitro cytotoxicity (SRB, 48 h), Colon panel; conditions: Homo sapiens; SW-620, Colon; 48 h exposure
CNS cancer cell lines = assay: NCI in vitro cytotoxicity, whole panel; conditions: Homo sapiens; for CC50: read-out: Log10 LC50 (converted)
OVCAR-8 = assay: NCI in vitro cytotoxicity (SRB, 48 h), Ovarian panel; conditions: Homo sapiens; OVCAR-8, Ovarian; 48 h exposure
HL-60(TB) = assay: NCI in vitro cytotoxicity (SRB, 48 h), Leukemia panel; conditions: Homo sapiens, 48 h exposure
Description: (§1) The imidazothiazole-chalcone hybrids 7a, 7e, 7f, 8f and 19e have been tested against sixty human tumour cell lines derived from nine cancer types (leukemia, non-small cell lung cancer, colon cancer, CNS cancer, melanoma, ovarian cancer, renal cancer, prostate cancer and breast cancer) as per NCI protocol. For each compound, dose response curves for individual cell lines have been measured at a minimum of five concentrations at 10 fold dilutions. A protocol of 48 h continuous drug exposure has been used, and a sulforhodamine B (SRB) protein assay was used to estimate cell viability or growth. The concentration for 50% cell growth inhibition (GI50), total cell growth inhibition (TGI, 0% growth) and 50% cell death (LC50, […]) compared with the control has been calculated (Table-1).

SR = assay: as above; conditions: Homo sapiens
Description: as §1

DU-145 = assay: NCI in vitro cytotoxicity (SRB, 48 h), Prostate panel; conditions: Homo sapiens; DU-145, Prostate; 48 h exposure
K-562 = assay: NCI in vitro cytotoxicity (SRB, 48 h), Leukemia panel; conditions: Homo sapiens, K562; K-562, Leukemia; 48 h exposure
Colon cancer cell lines = assay: NCI in vitro cytotoxicity, whole panel; conditions: Homo sapiens; for CC50: read-out: Log10 LC50 (converted)
RXF 393 = assay: NCI in vitro cytotoxicity (SRB, 48 h), Renal panel; conditions: Homo sapiens; RXF 393, Renal; 48 h exposure
ACHN = assay: NCI in vitro cytotoxicity (SRB, 48 h), Renal panel; conditions: Homo sapiens, 48 h exposure
T-47D = assay: NCI in vitro cytotoxicity (SRB, 48 h), Breast panel; conditions: Homo sapiens, T47D, 48 h exposure
SNB-75 = assay: NCI in vitro cytotoxicity (SRB, 48 h), CNS panel; conditions: Homo sapiens; SNB-75, CNS; 48 h exposure
Renal cancer cell lines = assay: NCI in vitro cytotoxicity, whole panel; conditions: Homo sapiens; for CC50: read-out: Log10 LC50 (converted)
OVCAR-3 = assay: NCI in vitro cytotoxicity (SRB, 48 h), Ovarian panel; conditions: Homo sapiens; OVCAR-3, Ovarian; 48 h exposure
TK-10 = assay: NCI in vitro cytotoxicity (SRB, 48 h), Renal panel; conditions: Homo sapiens; TK-10, Renal; 48 h exposure
NCI-H23 = assay: NCI in vitro cytotoxicity (SRB, 48 h), Non-small cell lung panel; conditions: Homo sapiens, 48 h exposure
HCC-2998 = assay: NCI in vitro cytotoxicity (SRB, 48 h), Colon panel; conditions: Homo sapiens
COLO 205 = assay: NCI in vitro cytotoxicity (SRB, 48 h), Colon panel; conditions: Homo sapiens; COLO 205, Colon; 48 h exposure
786-0 = assay: NCI in vitro cytotoxicity (SRB, 48 h), Renal panel; conditions: Homo sapiens; 786-0, Renal; 48 h exposure
[2] = test system: Non-small-cell lung cancer cell lines; assay: NCI in vitro cytotoxicity, whole panel; conditions: Homo sapiens; for CC50: read-out: Log10 LC50 (converted)
HOP-62 = assay: NCI in vitro cytotoxicity (SRB, 48 h), Non-small cell lung panel; conditions: Homo sapiens; HOP-62, Non-small cell lung; 48 h exposure
SNB-19 = assay: NCI in vitro cytotoxicity (SRB, 48 h), CNS panel; conditions: Homo sapiens; SNB-19, CNS; 48 h exposure
SK-MEL-5 = assay: NCI in vitro cytotoxicity (SRB, 48 h), Melanoma panel; conditions: Homo sapiens; SK-MEL-5, Melanoma; 48 h exposure
A498 = assay: NCI in vitro cytotoxicity (SRB, 48 h), Renal panel; conditions: Homo sapiens, 48 h exposure
EKVX = assay: NCI in vitro cytotoxicity (SRB, 48 h), Non-small cell lung panel; conditions: Homo sapiens, 48 h exposure
PC-3 = assay: NCI in vitro cytotoxicity (SRB, 48 h), Prostate panel; conditions: Homo sapiens; PC-3, Prostate; 48 h exposure
SK-OV-3 = assay: NCI in vitro cytotoxicity (SRB, 48 h), Ovarian panel; conditions: Homo sapiens; SK-OV-3, Ovarian; 48 h exposure
NCI/ADR-RES = assay: as above; conditions: Homo sapiens, 48 h exposure
OVCAR-5 = assay: as above; conditions: Homo sapiens; OVCAR-5, Ovarian; 48 h exposure
HS 578T = assay: NCI in vitro cytotoxicity (SRB, 48 h), Breast panel; conditions: Homo sapiens, 48 h exposure
M14 = assay: NCI in vitro cytotoxicity (SRB, 48 h), Melanoma panel; conditions: Homo sapiens, 48 h exposure
[3] = Prostate cell, exposure period of at least 48 hrs, read-out: GI50, range over prostate cell lines
[4] = Prostate, average of the panel's cell lines, read-out: Log10 GI50 (converted)
[5] = Prostate, average of the panel's cell lines
[6] = Melanoma, average of six to eight cell lines, read-out: Log10 GI50 (converted)
[7] = Melanoma, average of six to eight cell lines
[8] = exposure period of at least 48 hrs, read-out: GI50, range over melanoma cell lines
[9] = CNS cell, exposure period of at least 48 hrs, read-out: GI50, range over CNS cell lines
[10] = CNS, average of six to eight cell lines, read-out: Log10 GI50 (converted)
[11] = CNS, average of six to eight cell lines
[12] = Colon, average of six to eight cell lines, read-out: Log10 GI50 (converted)
[13] = Colon, average of six to eight cell lines
[14] = exposure period of at least 48 hrs, read-out: GI50, range over colon cell lines
[15] = Renal, average of six to eight cell lines, read-out: Log10 GI50 (converted)
[16] = Renal, average of six to eight cell lines
[17] = exposure period of at least 48 hrs, read-out: GI50, range over renal cell lines
[18] = Non-small-cell lung, average of six to eight cell lines, read-out: Log10 GI50 (converted)
[19] = Non-small-cell lung, average of six to eight cell lines
[20] = exposure period of at least 48 hrs, read-out: GI50, range over lung cell lines

Work on `COc1cc(C(=O)/C=C/c2c(C(F)(F)F)nc3sccn23)cc(OC)c1OC` [Compound 7f, (E)-3-(6-(trifluoromethyl)imidazo[2,1-b]thiazol-5-yl)-1-(3,4,5-trimethoxyphenyl)prop-2-en-1-one] yielded a GI50 (NCI-H460) of 1.65 µM, a GI50 [1, 3] of 1.41 to 2.66 µM and a GI50 [1, 4] of 1.95 µM. For the same molecule, the LC50 [1, 5] was 20 µM, the GI50 (Melanoma cell lines; [6]) was 1.7 µM and the CC50 (Melanoma cell lines; [7]) was 9.33 µM. The GI50 (Melanoma cell lines; [8]) was 1.36 to 2.26 µM, the GI50 (SK-MEL-2) was 2.26 µM and the GI50 (SW-620) was 1.67 µM. For the same molecule, the GI50 (CNS cancer cell lines; [9]) was 1.38 to 2.67 µM, the GI50 (CNS cancer cell lines; [10]) was 1.91 µM and the CC50 (CNS cancer cell lines; [11]) was 12.6 µM. The GI50 (OVCAR-8) was 3.08 µM, the GI50 (HL-60(TB)) was 1.83 µM and the GI50 (SR) was 0.54 µM. It also gave a GI50 (SR; 48 h exposure) of 0.54 µM, a GI50 (DU-145) of 1.41 µM and a GI50 (K-562) of 1.74 µM. It also gave a GI50 (Colon cancer cell lines; [12]) of 1.62 µM, a CC50 (Colon cancer cell lines; [13]) of 8.51 µM and a GI50 (Colon cancer cell lines; [14]) of 1.01 to 1.94 µM. For the same molecule, the GI50 (RXF 393) was 2.02 µM, the GI50 (ACHN) was 1.82 µM and the GI50 (T-47D) was 2.12 µM. It also gave a GI50 (SNB-75) of 1.87 µM, a GI50 (Renal cancer cell lines; [15]) of 1.86 µM and a CC50 (Renal cancer cell lines; [16]) of 10.5 µM. For the same molecule, the GI50 (Renal cancer cell lines; [17]) was 1.56 to 2.3 µM, the GI50 (OVCAR-3) was 1.86 µM and the GI50 (TK-10) was 2.3 µM. For the same molecule, the GI50 (NCI-H23) was 1.72 µM, the GI50 (HCC-2998; HCC-2998, Colon, 48 h exposure) was 1.71 µM and the GI50 (HCC-2998; HCC-2998, colon) was 1.71 µM. For the same molecule, the GI50 (COLO 205) was 1.94 µM, the GI50 (786-0) was 1.76 µM and the GI50 [2, 18] was 2.45 µM. For the same molecule, the CC50 [2, 19] was 26.9 µM, the GI50 [2, 20] was 1.65 to 7 µM and the GI50 (HOP-62) was 1.93 µM. For the same molecule, the GI50 (SNB-19) was 2.67 µM, the GI50 (SK-MEL-5) was 1.59 µM and the GI50 (A498) was 1.89 µM. It also gave a GI50 (EKVX) of 2.72 µM, a GI50 (PC-3) of 2.66 µM and a GI50 (SK-OV-3) of 2.87 µM.
In the case of `COc1cc(C(=O)/C=C/c2c(-c3ccc(F)cc3)nc3sc(C)cn23)cc(OC)c1OC` [Compound 19e, (E)-3-(6-(4-fluorophenyl)-2-methylimidazo[2,1-b]thiazol-5-yl)-1-(3,4,5-trimethoxyphenyl)prop-2-en-1-one], the GI50 (NCI-H460) is reported as 3.87 µM, the GI50 [1, 3] is reported as 2.41 to 7.52 µM and the GI50 [1, 4] is reported as 4.27 µM. It also gave an LC50 [1, 5] of at least 100 µM, a GI50 (Melanoma cell lines; [6]) of 3.02 µM and a CC50 (Melanoma cell lines; [7]) of at least 100 µM. It also gave a GI50 (Melanoma cell lines; [8]) of 0.51 to 7.07 µM, a GI50 (SK-MEL-2) of 5.75 µM and a GI50 (SW-620) of 5.34 µM. For the same molecule, the GI50 (CNS cancer cell lines; [9]) was 2.33 to 87.8 µM, the GI50 (CNS cancer cell lines; [10]) was 12.6 µM and the CC50 (CNS cancer cell lines; [11]) was at least 100 µM. It also gave a GI50 (NCI/ADR-RES) of 2.63 µM, a GI50 (OVCAR-8) of 4.94 µM and a GI50 (HL-60(TB)) of 2.8 µM. For the same molecule, the GI50 (SR; 48 h exposure) was 0.8 µM, the GI50 (DU-145) was 7.52 µM and the GI50 (K-562) was 5.46 µM. It also gave a GI50 (Colon cancer cell lines; [12]) of 5.01 µM, a CC50 (Colon cancer cell lines; [13]) of at least 100 µM and a GI50 (Colon cancer cell lines; [14]) of 2.92 to 9.93 µM. The GI50 (RXF 393) was 5.75 µM, the GI50 (ACHN) was 5.83 µM and the GI50 (T-47D) was 2.93 µM. The GI50 (SNB-75) was 50.1 µM, the GI50 (OVCAR-5) was over 100 µM and the GI50 (Renal cancer cell lines; [15]) was 6.31 µM. It also gave a CC50 (Renal cancer cell lines; [16]) of at least 100 µM, a GI50 (Renal cancer cell lines; [17]) of 1.78 to 28 µM and a GI50 (OVCAR-3) of 3.66 µM. It also gave a GI50 (HS 578T) of 8.29 µM, a GI50 (TK-10) of 28 µM and a GI50 (NCI-H23) of 2.24 µM. For the same molecule, the GI50 (HCC-2998; HCC-2998, Colon, 48 h exposure) was 9.93 µM, the GI50 (COLO 205) was 4.94 µM and the GI50 (786-0) was 8.88 µM. For the same molecule, the GI50 (M14) was 5.12 µM, the GI50 [2, 18] was 4.47 µM and the CC50 [2, 19] was at least 100 µM. The GI50 [2, 20] was 0.15 to 85.1 µM, the GI50 (HOP-62) was 85.1 µM and the GI50 (SNB-19) was 87.8 µM. It also gave a GI50 (SK-MEL-5) of 0.51 µM, a GI50 (EKVX) of 2.29 µM and a GI50 (PC-3) of 2.41 µM. For the same molecule, the GI50 (SK-OV-3) was 6.12 µM.
